Results as given in US5527815A, “Carboxymethylidenecycloheptimidazole derivatives, method of manufacturing the same and therapeutic agents containing these compounds” (Kotobuki Seiyaku Co., Ltd., priority 1993, dated 1996).

Columns and labels:
Angiotensin II receptor = biological target: T1, Angiotensin II receptor (Oryctolagus cuniculus, UniProt P34976); assay: AII receptor antagonistic activity: inhibition of angiotensin II induced contraction of isolated rabbit thoracic aorta; format: cell-based; details: isolated rabbit thoracic aorta contracted by angiotensin II; Van Rossum method; values shown in parenthesis
T1 construct: Rabbit thoracic aorta is isolated, contracted by angiotensin II; from tissue; host or cells: rabbit thoracic aorta
T1 sequence (P34976 1-359): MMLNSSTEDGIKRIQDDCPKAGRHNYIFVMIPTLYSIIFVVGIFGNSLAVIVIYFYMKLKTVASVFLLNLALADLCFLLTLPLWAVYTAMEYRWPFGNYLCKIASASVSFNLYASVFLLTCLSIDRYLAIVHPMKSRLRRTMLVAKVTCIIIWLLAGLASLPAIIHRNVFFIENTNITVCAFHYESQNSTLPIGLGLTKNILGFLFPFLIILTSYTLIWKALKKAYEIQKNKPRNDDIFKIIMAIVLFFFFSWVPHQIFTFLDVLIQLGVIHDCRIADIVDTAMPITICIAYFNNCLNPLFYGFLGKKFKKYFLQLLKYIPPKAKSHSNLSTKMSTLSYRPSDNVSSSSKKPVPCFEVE
Protocol: [AII receptor antagonistic activity]
Angiotensin II receptor activity experiments are carried out according to P. C. Wong et al. (Hypertension 15, 823 (1990)).
Rabbit thoracic aorta is isolated, contracted by angiotensin II. The inhibition of contraction by the compound of formula (1) is expressed as pA2 from dose-response curve (Schild, Brit. J. Pharmacol. 14, 48 (1959)) or expressed as pD2 ' according to the method of J. M. Van Rossum (Arch. Intern. Pharmacodyn., 143, 229 (1963)).

pressor responses to AII = assay: Inhibition of AII induced blood pressure increase in rats; format: in vivo; details: Rattus norvegicus, po, test compound 0.3 mg/kg orally, AII 30 ng/kg i.v., pressor responses measured at set times
Protocol: [Inhibition of All induced Blood Pressure Increase]
Carotid artery and left femoral vein in rats were cannulated. Next day, the carotid catheter was connected to a pressure transducer for monitoring arterial blood pressure. After the measurement of AII (30 ng/kg, i.v.) pressor responses, test compounds (0.3 mg/kg) were administered orally.
Thereafter, the pressor responses to AII at set times were measured and the inhibition percent was calculated according to the comparison of the pressor responses.

## CCc1nc2c(n1Cc1ccc(-c3ccccc3-c3nnn[nH]3)cc1)/C(=C/C(=O)O)CCCC2 [Compound 16, 2-Ethyl-8-carboxymethylidene-1-[(2'-(1H-tetrazole-5-yl)biphenyl-4-yl)methyl]-4,5,6,7-tetrahydro-cycloheptimidazole]
Angiotensin II receptor
  pD2': 9.91
Pressor responses to AII
  inhibition in vivo at 0.3 mg/kg: ≥ 70%
